Drawing on PubChem BioAssay (NCI), this text covers TGI for 8 molecules.

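Tested at 5 concentrations; 48 h exposure; 96-well plates; endpoints linearly interpolated, else capped at highest concentration. Definition used: TGI = concentration required for complete inhibition of growth.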 Where only a bound is given, the exact number is not on record here.

What all share (assay): inhibition of tumour cell growth, NCI panel, 48 h
For assay [1], the system named is A549 NSCLC.
Assay [2] concerns ACHN renal.
Assay [3] concerns BT-549 breast.
In assay [4] the test system is CAKI-1 renal.
The subject of assay [5] is COLO 205 colon.
Assay [6] concerns EKVX NSCLC.
Assay [7] relates to HL-60(TB) leukemia.
The subject of assay [8] is HT29 colon.
In assay [9] the test system is KM12 colon.
Assay [10] deals with LOX IMVI melanoma.
The subject of assay [11] is MALME-3M melanoma.
The test system of assay [12] is MDA-N.
Assay [13] has as its system OVCAR-5 ovarian.
The test system of assay [14] is PC-3 prostate.
Assay [15] relates to SK-OV-3 ovarian.
Assay [16] deals with SNB-19 CNS.
Assay [17] deals with SR leukemia.
The subject of assay [18] is SF-539 CNS.

In the case of `CCN(CC)C(=S)SS(=O)(=O)c1ccc(NC(C)=O)cc1`, the TGI in [1] was 43.4 µM; in assay [2], over 88.8 µM; in [3], over 78.4 µM; in [4], 41.8 µM; in assay [5], over 72.1 µM; in assay [6] it was over 100 µM. In addition, the TGI was 76.4 µM in assay [7]; 70.8 µM in assay [8]; over 100 µM in assay [9]; 31.8 µM in assay [10]; 31.6 µM in assay [11]; over 78.8 µM in assay [12]. The TGI was 60.5 µM in [13]; over 100 µM in assay [14]; over 100 µM in assay [15]; over 100 µM in assay [16]; over 51.6 µM in [17].

With `Cc1ccc(/C=N/NS(=O)(=O)c2ccc(/C=C3\NC(=O)NC3=O)cc2)cc1`, the TGI in assay [1], in [2], in [3], in [4], in assay [5] and in assay [6] was over 100 µM each time. The TGI in assay [7], in [8], in [9], in [10], in assay [11] and in [12] was over 100 µM throughout. Also, the TGI in assay [13], in assay [14], in [15], in [16] and in [17] was over 100 µM each time.

Consider `CCOC(=O)c1cc(Br)c(-c2onc(C)c2Br)n1C`, for which the TGI in assay [1] is 64.2 µM; in [2], over 100 µM; in assay [3], over 100 µM; in [4], 45.4 µM; in [5] it was 85.7 µM; in assay [6], 85.6 µM. In addition, the TGI was 27.5 µM in assay [7]; 69.5 µM in assay [9]; over 100 µM in [10]; over 100 µM in [11]; over 100 µM in assay [12]; 68.8 µM in assay [13]. For the same molecule, the TGI in assay [14] was over 100 µM; in assay [18], over 100 µM; in assay [15], 59.8 µM; in assay [16], over 100 µM; in assay [17], 92.9 µM.

As for `CC(C)N1[C@@H]2CCCC[C@H]2N(C(C)C)P1(=O)C(=O)/C=C/c1ccccc1`, the TGI in assay [1] is 12.4 µM; in [2] it was 8.62 µM; in assay [3] it was 14.5 µM; in assay [4], 7.31 µM; in [5], 5.05 µM; in assay [6], 13.8 µM. Besides, the TGI came out at 4.84 µM in assay [7]; 8.03 µM in assay [8]; 10.2 µM in assay [9]; 4.55 µM in assay [10]; 2.33 µM in assay [11]; 3.82 µM in assay [12]. Besides, the TGI in [13] amounted to 6.66 µM; in assay [14], 15.2 µM; in [18] it was 6.34 µM; in assay [16], 18.3 µM; in [17], 8.27 µM.

`O=[N+]([O-])c1ccc(C(=Nc2ccccc2)SSC(=Nc2ccccc2)c2ccc([N+](=O)[O-])o2)o1`: the TGI was 5.21 µM in [2]; 3.69 µM in assay [3]; 4.67 µM in assay [4]; 2.44 µM in assay [5]; 3.48 µM in assay [6]; 8.61 µM in assay [7]. In addition, the TGI in assay [8] is 4.1 µM; in assay [9], 4.15 µM; in assay [10], 3.83 µM; in assay [11], 5.09 µM; in assay [12], 12.4 µM; in assay [13], 5.04 µM. In addition, the TGI was 4.03 µM in [14]; 4.01 µM in assay [18]; 14.3 µM in assay [15]; 4.07 µM in [16]; over 100 µM in [17].

Consider `CCOP(=O)(OCC)C(F)(F)Cc1cnc(C)c2c1COC(C)(C)O2`, for which the TGI in [1], in assay [2], in assay [3], in assay [4], in assay [5] and in assay [6] was over 10 µM in each case. The TGI in [7], in [8], in [9], in assay [11], in assay [12] and in assay [13] was over 10 µM throughout. In addition, the TGI in [14], in assay [18], in [15], in [16] and in assay [17] was over 10 µM throughout.

For the molecule `C=CCC1C(=O)Nc2cccc3ncn(c23)C1=O` (stereo not given), the TGI in assay [1], in assay [2], in assay [3], in assay [4], in [5] and in [6] was over 100 µM each time. In addition, the TGI in [7], in assay [8], in assay [9], in assay [11], in assay [12] and in assay [13] was over 100 µM throughout. For the same molecule, the TGI in assay [14], in [18], in [15], in assay [16] and in assay [17] was over 100 µM throughout.

As for `O=C1COCCN1C(=O)c1ccccc1Cl`, the TGI in [1], in [2], in [3], in [4], in assay [6] and in [7] was over 100 µM in each case. The TGI in [8], in assay [9], in [10], in assay [11], in [12] and in [13] was over 100 µM in each case. In addition, the TGI in assay [14], in [18], in [16] and in assay [17] was over 100 µM each time.
